Converted amounts (≈) assume the structure as drawn.

Conditions in one series: not given
As a reminder, the logP is the decadic logarithm of the partition coefficient of the neutral form, usually between octanol and water. Higher therefore signals a more lipophilic compound. For orientation: solubility means the concentration that dissolves in the medium under given conditions. For the compound `COc1cccc(C(=O)NN(C(=O)c2cc(C)cc(C)c2)C(C)(C)C)c1C`, the logP was determined as 3.7 and the solubility is under 2.71 µM.

`CCCN(CCC)c1c([N+](=O)[O-])cc(C(F)(F)F)c(N)c1[N+](=O)[O-]`: the lipophilicity (logP) was 4.1. In turn, `CC(C)NC(=O)N1CC(=O)N(c2cc(Cl)cc(Cl)c2)C1=O` came in with a logP of 3.

On to `COC(=O)/C=C(\C)OP(=O)(OC)OC`, for which the logP came to 0.13.

Consider `CC1(C)OC[C@@H]2O[C@@]3(C(=O)O)OC(C)(C)O[C@H]3[C@@H]2O1`, for which the logP is 1.35. Still for that read-out and setting: next, `CC(C)OC(=O)C(O)(c1ccc(Br)cc1)c1ccc(Br)cc1`: 5.4. `CC1CCCCC1NC(=O)Nc1ccccc1` (stereo not given) returned a logP of 3.8. `CC(C)(C)N(NC(=O)c1ccc(Cl)cc1)C(=O)c1ccccc1` registered a log partition coefficient (logP) of 3.22 and a solubility of 36.3 µM (≈ 12 µg/mL). Regarding `CCCN(CCC)c1c([N+](=O)[O-])cc(S(N)(=O)=O)cc1[N+](=O)[O-]`, the logP came out at 3.73.

With `CCOP(=O)(SC(C)CC)SC(C)CC` (stereo not given), the logP worked out at 3.9. In the case of `CS(=O)(=O)c1cc(C(F)(F)F)ccc1C(=O)c1cnoc1C1CC1`, the lipophilicity (logP) is 2.32. `C/C(=N\NC(=O)Nc1cc(F)cc(F)c1)c1ncccc1C(=O)O` showed a solubility of 188 µM (≈ 63 µg/mL).

Staying with this series, now noted: 20 °C.
Take `CCCCOCN(C(=O)CCl)c1c(CC)cccc1CC`: the solubility was found to be 68.8 µM (≈ 21.4 µg/mL). For the compound `CC(C)OC(=O)c1cc(C(=O)OC(C)C)cc([N+](=O)[O-])c1`, the solubility is 9.14 µM (≈ 2.7 µg/mL).

Still in this series, the particulars now being: 24 °C.
Regarding `COCC(=O)N(c1c(C)cccc1C)C(C)C(=O)OC` (stereo not given), the solubility was 36400 µM (≈ 10200 µg/mL).

Staying with this series, now noted: 25 °C.
As for `Clc1cccc(C(Cl)(Cl)Cl)n1`, the solubility was 233 µM (≈ 53.7 µg/mL). Consider `CCOP(=O)(SC(C)CC)SC(C)CC` (stereo not given), for which the solubility came out at 917 µM (≈ 248 µg/mL).

The series is the same for the next values; noted with them: pH 5.5; 20 °C.
Compound `CS(=O)(=O)c1cc(C(F)(F)F)ccc1C(=O)c1cnoc1C1CC1` had a solubility of 17.3 µM (≈ 6.2 µg/mL).

Values taken from the OPERA property sets (Mansouri et al. 2018).
